Assay results from patent US20170137410A1, “FUSED CYCLOALKYL-PYRIMIDINE COMPOUNDS AND USES THEREOF” (Medivation Technologies, Inc., priority 2014, published 2017).
pIC50: −log10 of the molar value.

Experiments:
Format in all cases: biochemical
FLT3 (ITD) = molecular target: T1, FLT3 (ITD) (Homo sapiens, UniProt P36888); experiment: HotSpot kinase assay against FLT3 (ITD); conditions: HotSpot 33P assay, ATP 10 μM
T1 sequence (P36888 1-993): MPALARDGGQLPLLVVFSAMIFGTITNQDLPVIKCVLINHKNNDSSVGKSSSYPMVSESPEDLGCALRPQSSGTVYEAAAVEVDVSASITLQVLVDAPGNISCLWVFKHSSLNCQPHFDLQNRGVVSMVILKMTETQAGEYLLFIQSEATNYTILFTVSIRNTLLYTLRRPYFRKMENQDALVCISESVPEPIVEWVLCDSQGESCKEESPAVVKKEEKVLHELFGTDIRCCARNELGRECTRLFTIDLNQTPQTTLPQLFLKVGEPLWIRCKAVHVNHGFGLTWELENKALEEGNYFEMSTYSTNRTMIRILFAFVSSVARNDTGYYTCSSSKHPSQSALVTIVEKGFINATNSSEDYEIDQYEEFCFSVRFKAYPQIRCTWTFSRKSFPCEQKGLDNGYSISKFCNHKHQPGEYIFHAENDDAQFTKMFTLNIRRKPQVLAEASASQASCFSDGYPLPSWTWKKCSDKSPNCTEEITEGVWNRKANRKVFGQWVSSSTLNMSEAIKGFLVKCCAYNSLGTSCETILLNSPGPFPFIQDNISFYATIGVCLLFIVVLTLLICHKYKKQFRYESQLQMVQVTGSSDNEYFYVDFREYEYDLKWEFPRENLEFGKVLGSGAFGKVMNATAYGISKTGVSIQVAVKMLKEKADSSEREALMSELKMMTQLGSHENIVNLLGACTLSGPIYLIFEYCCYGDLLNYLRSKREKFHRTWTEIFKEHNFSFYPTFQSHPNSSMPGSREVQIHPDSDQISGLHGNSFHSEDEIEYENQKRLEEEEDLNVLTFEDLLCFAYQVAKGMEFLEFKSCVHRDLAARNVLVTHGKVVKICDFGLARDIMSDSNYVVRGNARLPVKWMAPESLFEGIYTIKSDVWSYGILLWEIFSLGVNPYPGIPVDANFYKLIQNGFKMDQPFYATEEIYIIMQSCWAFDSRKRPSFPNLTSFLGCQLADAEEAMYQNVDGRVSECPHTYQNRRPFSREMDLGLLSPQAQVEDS
Method: Kinase assays were performed using test compounds against a panel of FLT3 kinases: FLT3; FLT3 (D835Y); and FLT3 (ITD). Compounds were prepared as 10 mM stock solutions in DMSO prior to use in the assay. Each compound was tested at 10 concentrations with three-fold serial dilution starting at 1 μM against the three kinases. The control compound, staurosporine, was tested at 10 concentrations with four-fold serial dilution starting at 20 μM. IC50 values and curve fits were obtained using Prism (GraphPad Software). The screening was performed using the “HotSpot” assay platform. The assay measures the conversion of a peptide substrate to ^33P-labelled phosphorylated product. Briefly, specific kinase/substrate pairs along with required cofactors were prepared in reaction buffer. Specifically, the substrate was prepared in reaction buffer (20 mM Hepes, pH 7.5; 10 mM MgCl2; 1 mM EGTA; 0.02% Brij35; 0.02 mg/mL BSA; 0.1 mM Na3VO4; 2 mM DTT; 1% DMSO), followed by delivery of any required cofactor to the resulting substrate solution. The corresponding kinase was delivered into the substrate solution and the reaction mixture was mixed gently. Compound was delivered into the reaction mixture, followed 15-20 min later by addition of a mixture of ATP (Sigma, St. Louis Mo.) and ^33P ATP (specific activity 0.01 μCi/μL final; Perkin Elmer, Waltham, Mass.) to a final concentration of 10 μM to initiate the reaction. Reactions were carried out at RT for 120 min, followed by spotting of the reactions onto P81 ion exchange filter paper (Whatman #3698-915; Whatman Inc., Piscataway, N.J.). Unbound phosphate was removed by extensive washing of filters in 0.75% phosphoric acid. […] The percent of enzyme inhibition was calculated based on the percent of remaining kinase activity. IC50 values were determined.

activated IR = molecular target: T2, activated IR (Homo sapiens, UniProt P06213); experiment: In vitro IR enzymatic assay (ADP-Glo); conditions: ATP 50 μM
T2 construct: purchased Millipore 14-803
Method: (§1) Inhibition of IGF-1R and IR kinases by compounds described herein were tested. The IC50 values were measured in vitro using an ADP-Glo kinase assay Kit (Promega). For the IGF-1R assay, active recombinant IGF-1R (Millipore #14-802) was used at 1 ng/reaction, the substrate IGF-1R tide (Millipore #12-527) was used at 125 μM and ATP was used at 100 μM. For the IR assay, active recombinant IR (Millipore #14-803) was used at 1 ng/reaction, the substrate Axl tide (Millipore #12-516) was used at 125 μM and ATP at 50 μM. Kinase reactions in both assays were conducted at 30° C. for 20 min with increasing concentrations of the test compounds.
(§2) The assay results as the percent inhibition of binding are presented in Tables B2 and B3 for IGF-1R and IR respectively.

activated IGF-1R = molecular target: T3, activated IGF-1R (Homo sapiens, UniProt P08069); experiment: In vitro IGF-1R enzymatic assay (ADP-Glo); conditions: ATP 100 μM
T3 construct: purchased Millipore 14-802
Method: as §1, §2

ROS/ROS1 = ROS/ROS1 (Homo sapiens, UniProt P08922); experiment: HotSpot kinase assay against ROS/ROS1; conditions: HotSpot 33P assay, ATP 10 μM-30 μM
Method: (§3) The screening was performed using the “HotSpot” assay platform. The assay measures the conversion of a peptide substrate to ^33P-labelled phosphorylated product. Briefly, specific kinase/substrate pairs along with required cofactors were prepared in reaction buffer. Specifically, the substrate was prepared in reaction buffer (20 mM Hepes, pH 7.5; 10 mM MgCl2; 1 mM EGTA; 0.02% Brij35; 0.02 mg/mL BSA; 0.1 mM Na3VO4; 2 mM DTT; 1% DMSO), followed by delivery of any required cofactor to the resulting substrate solution. The corresponding kinase was delivered into the substrate solution and the reaction mixture was mixed gently. Compound was delivered into the reaction mixture, followed 15-20 minutes later by addition of a mixture of ATP (Sigma, St. Louis Mo.) and ^33P ATP (specific activity 0.01 μCi/μL final; Perkin Elmer, Waltham, Mass.) to a final concentration of 10 μM-30 μM to initiate the reaction. Reactions were carried out at RT for 120 min, followed by spotting of the reactions onto P81 ion exchange filter paper (Whatman #3698-915; Whatman Inc., Piscataway, N.J.). Unbound phosphate was removed by extensive washing of filters in 0.75% phosphoric acid. […] The percent of enzyme inhibition was calculated based on the percent of remaining kinase activity. IC50 values and curve fits were obtained using Prism (GraphPad Software).

ABL2/ARG = ABL2/ARG (Homo sapiens, UniProt P42684); experiment: HotSpot kinase assay against ABL2/ARG; conditions: HotSpot 33P assay, ATP 10 μM-30 μM
Method: as §3

T2 sequence (P06213 28-1382): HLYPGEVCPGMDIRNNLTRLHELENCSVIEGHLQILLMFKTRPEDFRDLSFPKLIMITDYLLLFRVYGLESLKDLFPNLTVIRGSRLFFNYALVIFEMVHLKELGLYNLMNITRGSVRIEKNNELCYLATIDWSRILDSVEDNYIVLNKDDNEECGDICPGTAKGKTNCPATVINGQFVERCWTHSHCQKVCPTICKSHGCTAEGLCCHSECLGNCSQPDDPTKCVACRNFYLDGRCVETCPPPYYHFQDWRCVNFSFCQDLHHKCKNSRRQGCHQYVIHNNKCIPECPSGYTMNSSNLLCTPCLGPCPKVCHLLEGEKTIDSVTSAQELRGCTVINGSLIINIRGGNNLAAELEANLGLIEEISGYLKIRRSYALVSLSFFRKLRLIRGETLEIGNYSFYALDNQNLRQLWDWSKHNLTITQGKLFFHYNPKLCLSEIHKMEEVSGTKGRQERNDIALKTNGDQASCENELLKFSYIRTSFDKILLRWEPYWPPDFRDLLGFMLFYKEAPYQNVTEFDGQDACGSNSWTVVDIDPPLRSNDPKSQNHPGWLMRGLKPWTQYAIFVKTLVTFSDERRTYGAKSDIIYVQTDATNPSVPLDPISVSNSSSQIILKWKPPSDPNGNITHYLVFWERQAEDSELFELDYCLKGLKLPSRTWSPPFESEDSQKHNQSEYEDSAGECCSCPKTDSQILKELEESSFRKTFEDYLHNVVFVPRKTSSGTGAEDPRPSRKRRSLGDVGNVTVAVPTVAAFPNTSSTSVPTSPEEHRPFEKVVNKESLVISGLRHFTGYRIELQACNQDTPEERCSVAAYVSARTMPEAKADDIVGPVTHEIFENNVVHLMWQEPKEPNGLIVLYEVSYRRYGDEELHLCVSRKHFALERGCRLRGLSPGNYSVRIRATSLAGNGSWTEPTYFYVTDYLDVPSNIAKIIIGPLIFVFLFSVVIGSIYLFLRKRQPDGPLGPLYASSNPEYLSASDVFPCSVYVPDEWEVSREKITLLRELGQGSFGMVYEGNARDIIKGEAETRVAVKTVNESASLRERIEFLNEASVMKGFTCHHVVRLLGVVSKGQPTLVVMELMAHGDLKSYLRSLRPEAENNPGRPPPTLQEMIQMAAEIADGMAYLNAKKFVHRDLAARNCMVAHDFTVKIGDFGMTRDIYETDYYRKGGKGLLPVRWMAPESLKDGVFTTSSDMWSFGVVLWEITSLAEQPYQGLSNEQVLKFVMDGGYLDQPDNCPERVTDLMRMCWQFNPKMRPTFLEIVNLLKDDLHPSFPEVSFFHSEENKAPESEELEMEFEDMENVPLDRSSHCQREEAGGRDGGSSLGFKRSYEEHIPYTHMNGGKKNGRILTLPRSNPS
T3 sequence (P08069 31-1367): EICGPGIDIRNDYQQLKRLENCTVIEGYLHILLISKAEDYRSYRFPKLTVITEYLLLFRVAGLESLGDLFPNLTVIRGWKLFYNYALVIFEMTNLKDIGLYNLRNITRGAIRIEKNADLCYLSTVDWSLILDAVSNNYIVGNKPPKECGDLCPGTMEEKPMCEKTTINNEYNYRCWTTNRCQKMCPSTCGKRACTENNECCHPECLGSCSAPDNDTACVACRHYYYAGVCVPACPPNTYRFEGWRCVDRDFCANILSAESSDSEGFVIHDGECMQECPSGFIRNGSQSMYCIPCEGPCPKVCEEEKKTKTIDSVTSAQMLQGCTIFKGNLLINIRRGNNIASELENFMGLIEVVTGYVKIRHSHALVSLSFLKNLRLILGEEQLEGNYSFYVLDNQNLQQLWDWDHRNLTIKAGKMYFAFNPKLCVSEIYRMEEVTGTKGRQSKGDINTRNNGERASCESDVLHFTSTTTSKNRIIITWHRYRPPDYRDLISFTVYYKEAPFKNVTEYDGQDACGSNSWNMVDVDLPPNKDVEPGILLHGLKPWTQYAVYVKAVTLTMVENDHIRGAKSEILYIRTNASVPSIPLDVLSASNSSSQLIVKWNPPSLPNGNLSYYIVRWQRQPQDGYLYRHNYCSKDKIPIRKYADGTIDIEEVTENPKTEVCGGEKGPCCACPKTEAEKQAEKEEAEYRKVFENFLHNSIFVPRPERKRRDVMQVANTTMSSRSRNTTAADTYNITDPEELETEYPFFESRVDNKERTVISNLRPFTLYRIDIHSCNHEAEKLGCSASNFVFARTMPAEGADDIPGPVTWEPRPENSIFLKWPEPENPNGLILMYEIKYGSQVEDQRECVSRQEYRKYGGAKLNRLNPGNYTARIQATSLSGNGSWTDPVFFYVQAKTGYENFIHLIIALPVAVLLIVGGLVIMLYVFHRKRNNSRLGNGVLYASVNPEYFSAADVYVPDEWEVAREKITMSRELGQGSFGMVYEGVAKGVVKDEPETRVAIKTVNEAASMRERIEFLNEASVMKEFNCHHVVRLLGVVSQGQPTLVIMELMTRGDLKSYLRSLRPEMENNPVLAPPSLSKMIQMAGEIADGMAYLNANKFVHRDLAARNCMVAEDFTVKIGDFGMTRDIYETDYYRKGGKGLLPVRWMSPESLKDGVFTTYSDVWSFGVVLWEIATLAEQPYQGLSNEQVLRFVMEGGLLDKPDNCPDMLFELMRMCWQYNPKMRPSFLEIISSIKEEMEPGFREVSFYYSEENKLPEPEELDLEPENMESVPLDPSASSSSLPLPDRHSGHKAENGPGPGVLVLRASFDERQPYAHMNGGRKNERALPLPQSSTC
ABL2/ARG, sequence (P42684 whole entry): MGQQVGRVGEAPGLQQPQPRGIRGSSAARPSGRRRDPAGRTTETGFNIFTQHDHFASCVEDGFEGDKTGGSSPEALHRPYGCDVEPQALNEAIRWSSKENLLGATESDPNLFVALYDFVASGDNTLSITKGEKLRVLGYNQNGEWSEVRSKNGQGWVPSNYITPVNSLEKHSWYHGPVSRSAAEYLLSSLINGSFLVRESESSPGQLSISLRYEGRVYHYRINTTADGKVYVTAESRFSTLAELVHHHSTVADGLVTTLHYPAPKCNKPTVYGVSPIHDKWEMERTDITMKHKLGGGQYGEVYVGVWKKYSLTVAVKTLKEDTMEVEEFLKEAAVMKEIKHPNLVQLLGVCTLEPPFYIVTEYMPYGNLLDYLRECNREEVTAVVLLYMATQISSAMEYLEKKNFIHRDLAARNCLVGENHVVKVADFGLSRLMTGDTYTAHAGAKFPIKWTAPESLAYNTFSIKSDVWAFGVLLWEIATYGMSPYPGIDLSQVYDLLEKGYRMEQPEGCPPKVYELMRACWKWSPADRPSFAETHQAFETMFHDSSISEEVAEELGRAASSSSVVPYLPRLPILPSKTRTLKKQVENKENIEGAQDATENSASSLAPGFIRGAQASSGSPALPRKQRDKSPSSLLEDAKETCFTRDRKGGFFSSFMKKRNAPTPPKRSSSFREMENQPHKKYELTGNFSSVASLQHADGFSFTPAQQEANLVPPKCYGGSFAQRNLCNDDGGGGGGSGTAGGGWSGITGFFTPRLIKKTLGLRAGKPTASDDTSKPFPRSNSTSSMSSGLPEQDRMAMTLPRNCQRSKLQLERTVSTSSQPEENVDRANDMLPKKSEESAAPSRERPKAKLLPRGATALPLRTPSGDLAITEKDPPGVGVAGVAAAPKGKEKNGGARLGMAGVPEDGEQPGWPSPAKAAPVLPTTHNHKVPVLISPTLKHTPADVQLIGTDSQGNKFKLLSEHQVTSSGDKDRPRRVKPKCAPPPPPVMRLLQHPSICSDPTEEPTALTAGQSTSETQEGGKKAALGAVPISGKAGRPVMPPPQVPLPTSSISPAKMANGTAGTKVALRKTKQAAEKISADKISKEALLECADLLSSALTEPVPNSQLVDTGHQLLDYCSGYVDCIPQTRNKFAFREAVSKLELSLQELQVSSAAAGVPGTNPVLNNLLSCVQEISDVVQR

Row | Compound | pIC50 (FLT3 (ITD)) | pIC50 (activated IR) | pIC50 (activated IGF-1R) | inhibition at 1 µM (activated IR; compound 1 μM) [%] | pIC50 (ROS/ROS1) | pIC50 (ABL2/ARG) | inhibition at 1 µM (activated IGF-1R; compound 1 μM) [%]
1 | CC(C)c1cc(Nc2nc(N3CCC[C@H]3C(=O)N(C)c3nccs3)nc3c2CCC3)n[nH]1 [68b, (S)-1-(4-((5-isopropyl-1H-pyrazol-3-yl)amino)-6,7-dihydro-5H-cyclopenta[d]pyrimidin-2-yl)-N-methyl-N-(thiazol-2-yl)pyrrolidine-2-carboxamide] | 6.78 | 6.44 | 6.61 | 77 | 8.36 | 7.39 | 84
2 | CCC(=O)N1CCN(C(=O)[C@H]2CCCN2c2nc3c(c(Nc4cc(C5CCCC5)[nH]n4)n2)CCC3)CC1 [143a, 1-(4-((4-((5-cyclopentyl-1H-pyrazol-3-yl)amino)-6,7-dihydro-5H-cyclopenta[d]pyrimidin-2-yl)-D-prolyl)piperazin-1-yl)propan-1-one] | 7.86 | 6.19 | 6.13 |  | 7.28 | 6.40 | 
3 | CCC(=O)N1CCN(C(=O)[C@@H]2CCCN2c2nc3c(c(Nc4cc(C5CCCC5)[nH]n4)n2)CCC3)CC1 [143b, (S)-1-(4-((4-((5-cyclopentyl-1H-pyrazol-3-yl)amino)-6,7-dihydro-5H-cyclopenta[d]pyrimidin-2-yl)prolyl)piperazin-1-yl)propan-1-one] | 6.51 | 4.77 | < 4.52 |  | < 6.00 | < 6.00 | 
4 | CCN(C(=O)[C@@H]1CCCN1c1nc2c(c(Nc3cc(C(C)C)[nH]n3)n1)CCC2)c1nccs1 [145b, (S)—N-ethyl-1-(4-((5-isopropyl-1H-pyrazol-3-yl)amino)-6,7-dihydro-5H-cyclopenta[d]pyrimidin-2-yl)-N-(thiazol-2-yl)pyrrolidine-2-carboxamide] | 6.36 | 6.17 | 6.33 |  |  |  | 

Results, then the compound that gave them:

Row | pIC50 (FLT3 (ITD)) | pIC50 (activated IR) | pIC50 (activated IGF-1R) | inhibition at 1 µM (activated IR; compound 1 μM) [%] | pIC50 (ROS/ROS1) | pIC50 (ABL2/ARG) | inhibition at 1 µM (activated IGF-1R; compound 1 μM) [%] | Compound
5 | 5.83 | < 4.52 | < 4.52 |  |  |  |  | CC1(C(=O)N2CCC(F)(F)CC2)CCCN1c1nc2c(c(Nc3cc(C4CCCC4)[nH]n3)n1)CCC2 (racemic) [compound 146, (1-(4-((5-cyclopentyl-1H-pyrazol-3-yl)amino)-6,7-dihydro-5H-cyclopenta[d]pyrimidin-2-yl)-2-methylpyrrolidin-2-yl)(4,4-difluoropiperidin-1-yl)methanone]
6 | < 6.00 | 5.53 | 5.31 |  | < 6.00 | < 6.00 |  | CC(C)(C)c1cc(Nc2nc(N3CCC[C@@H]3C(=O)N3CCC(F)(F)CC3)nc3c2CCC3)n[nH]1 [142a, (R)-(1-(4-((5-(tert-butyl)-1H-pyrazol-3-yl)amino)-6,7-dihydro-5H-cyclopenta[d]pyrimidin-2-yl)pyrrolidin-2-yl)(4,4-difluoropiperidin-1-yl)methanone]
7 | < 6.00 | 4.93 | < 5.00 |  | < 6.00 | < 6.00 |  | CC(C)(C)c1cc(Nc2nc(N3CCC[C@H]3C(=O)N3CCC(F)(F)CC3)nc3c2CCC3)n[nH]1 [142b, (S)-(1-(4-((5-(tert-butyl)-1H-pyrazol-3-yl)amino)-6,7-dihydro-5H-cyclopenta[d]pyrimidin-2-yl)pyrrolidin-2-yl)(4,4-difluoropiperidin-1-yl)methanone]
8 | < 6.00 | 5.22 | 4.99 |  | < 6.00 | < 6.00 |  | CCN(C(=O)[C@@H]1CCCN1c1nc2c(c(Nc3cc(C(C)(C)C)[nH]n3)n1)CCC2)c1nccs1 [144b, (S)-1-(4-((5-(tert-butyl)-1 H-pyrazol-3-yl)amino)-6,7-dihydro-5H-cyclopenta[d]pyrimidin-2-yl)-N-ethyl-N-(thiazol-2-yl)pyrrolidine-2-carboxamide]
